Results taken from patent US20240216354A1, “IMMUNOMODULATORY IMIDE DRUGS AS ZETA-CHAIN-ASSOCIATED PROTEIN KINASE 70 (ZAP70) AGONISTS AND USES THEREOF” (Dana-Farber Cancer Institute, Inc., priority 2019, published 2024).

Key:
granzyme-B (GZM-B) [1] = assay: GZM-B expression in primary NK cells (immunoblotting); assay type: cell-based, human; settings: primary NK cells #1, #2, pomalidomide 0.3-1 μM, 24 h
Description: (§1) (A) KHYG1 cells were cultured with pomalidomide (0.25-1 μM) for 24 h. (B) Isolated primary NK cells from healthy volunteers (#1, #2) were cultured with pomalidomide (0.3-1 μM) for 24 h. (C) KHYG-1 cells were transfected with Scsi or Zap-70si. After 48 h, cells were cultured for 24 h in the absence or presence (0.5 μM) of pomalidomide. Whole cell lysates and RNAs were subjected to immunoblotting using indicated Abs.

granzyme-B (GZM-B) [2] = assay: GZM-B expression in KHYG-1 cells (immunoblotting, real-time qPCR); assay type: cell-based; settings: pomalidomide 0.25-1 μM, 24 h
Description: as §1
(A) KHYG-1 cells were transfected with Scsi or CRBNsi. After 48 h, cells were cultured in the absence or presence of pomalidomide (0.5 μM) for 24 h, and cell lysates immunoblotted with indicated Abs. (B) KHYG-1 cells were transfected with Scsi or Zap-70si, and then cultured for 72 h with pomalidomide (0.25 μM), in the absence of IL-2. Cells were counted and incubated with calcein AM-labeled U266 for 4 h at indicated effector/target (E/T) ratios.
(A) KHYG-1 cells were transfected with CRBN, IKZF1, or IKZF3 siRNA. The transfectants were then cultured for 24 h with pomalidomide (0.5 μM). The arrow indicates CRBN. (B) KHYG-1 cells were cultured with pomalidomide for 24 h (0.5 μM), in the presence or absence of bortezomib (BTZ; 2.5 and 5 nM). (C, D) KHYG-1 cells were cultured for 24 h with lenalidomide, pomalidomide, or CC-220 (i.e., iberdomide) (0.01-1 μM). Whole cell lysates and RNAs were subjected to immunoblotting using indicated Abs (C) and real-time q-PCR (D), respectively.

U266 cells [3] = assay: KHYG-1 NK cell cytotoxicity against calcein-AM-labeled U266 cells; assay type: cell-based; settings: KHYG-1 cells, pomalidomide 0.25-1 μM 24 h, then 4 h with U266 at indicated E/T ratios
Description: KHYG-1 cells were cultured with pomalidomide (0.25-1 μM) for 24 h. (A) Whole cell lysates were subjected to immunoblotting using indicated Abs. (B) KHYG-1 cells were incubated with calcein-AM-stained U266 cells for 4 h at the indicated effector/target (E/T) ratios. Percent specific lysis was calculated as described previously. (C) KHYG-1 cells were transfected with Scsi or Zap-70si, and then cultured with pomalidomide (0.25 μM) for 72 h in the absence of IL-2. Viable cell number was determined, and cells were then incubated with calcein AM-labeled U266 target cells for 4 h at indicated effector/target (E/T) ratios. Percent specific lysis was calculated as described previously. […] Cell growth was assessed by MTT assay. […] Percent specific lysis was calculated as previously described.
(A) KHYG-1 cells were transfected with Scsi or CRBNsi. […] Cells were counted and incubated with calcein AM-labeled U266 for 4 h at indicated effector/target (E/T) ratios.
(A, B) KHYG-1 cells were transfected with scrambled (Sc) or Zap-70 siRNAs, and then cultured for 72 h with lenalidomide (0.5 μM), in the absence of IL-2 (A) The viable cell number was measured by trypan-blue dye exclusion. […] Percent specific lysis was calculated as described previously. *: p<0.01 compared with Scsi.
KHYG-1 cells were transfected with scrambled (Sc) or IKZF3 siRNAs. […] Percent specific lysis was calculated as previously described. […]

U266 cells [4] = assay: NK-92 NK cell activity against calcein-AM-stained U266 cells; assay type: cell-based; settings: NK-92 cells, 48 h; Pom 0.5 and 1 μM; CC-220 0.1 and 1 μM, E/T 2.5/1
Description: (A) NK-92 cells were cultured with Pom (0.5 and 1 μM) for 24 h. Whole cell lysates were subjected to immunoblotting using indicated Abs. (B) NK-92 cells were cultured with Pom (0.5 and 1 μM) for 48 h. The cells were subsequently incubated with calcein-AM-stained U266 cells for 4 h at the indicated effector/target (E/T) ratios. Percent specific lysis was calculated as described previously. (C) NK-92 cells were cultured with Pom (0.03-3 μM) for 72 h. Cell growth was assessed by MTT assay. (D) NK-92 cells were transfected with scrambled (Sc) or Zap-70 siRNA (Zap70si). After 72 h incubation, cell viability was measured by trypan-blue dye exclusion. For B, C, and D, data are representative of at least two independent experiments, and values are expressed in mean±SD.
(A) NK-92 cells were cultured with Len (1 μM), Pom (0.01, 0.1, 1 μM) or CC-220 (0.01, 0.1, 1 μM) for 24 h. Whole cell lysates were subjected to immunoblotting using indicated Abs. (B) NK-92 cells were cultured with Pom (0.1 and 1 μM) or CC-220 ([…]) for 48 h. NK cell activity was measured by incubation with calcein AM-labeled U266 cells for 4 h at E/T ratio of 2.5/1. Percent specific lysis was calculated as previously described. Data are representative of three independent experiments, and values are expressed in mean±SD. *: p<0.01.

With Nc1cccc2c1C(=O)N(C1CCC(=O)NC1=O)C2=O (stereo not shown) [pomalidomide] the GZM-B expression (granzyme-B (GZM-B) [1]) was “upregulated GZM-B expression”, the GZM-B expression (granzyme-B (GZM-B) [2]) was “upregulated GZM-B expression” and the “cytotoxicity against U266 cells (percent specific lysis)” value (U266 cells [3]) was “increased their cytotoxicity against U266 cells in a dose-dependent fashion”. The “NK cell activity against U266 cells (percent specific lysis)” value (U266 cells [4]) was “upregulated NK activity”.
